Here are results for 20 molecules from ChEMBL document CHEMBL3217598, “Synthesis, modeling, and crystallographic study of 3,4-disubstituted-1,2,5-oxadiazoles and evaluation of their ability to decrease STAT3 activity” (Medchemcomm, 2010).

Test [1] deals with Signal transducer and activator of transcription 3 (Homo sapiens) (UniProt P40763). Briefly: Inhibition of STAT3 in human HCT 116 cells co-transfected with pSTAT3-TA-Luc at 2 uM after 24 hrs by dual luciferase assay. The test is classed as cell-based.
Sequence of Signal transducer and activator of transcription 3 (Homo sapiens) (P40763 whole entry): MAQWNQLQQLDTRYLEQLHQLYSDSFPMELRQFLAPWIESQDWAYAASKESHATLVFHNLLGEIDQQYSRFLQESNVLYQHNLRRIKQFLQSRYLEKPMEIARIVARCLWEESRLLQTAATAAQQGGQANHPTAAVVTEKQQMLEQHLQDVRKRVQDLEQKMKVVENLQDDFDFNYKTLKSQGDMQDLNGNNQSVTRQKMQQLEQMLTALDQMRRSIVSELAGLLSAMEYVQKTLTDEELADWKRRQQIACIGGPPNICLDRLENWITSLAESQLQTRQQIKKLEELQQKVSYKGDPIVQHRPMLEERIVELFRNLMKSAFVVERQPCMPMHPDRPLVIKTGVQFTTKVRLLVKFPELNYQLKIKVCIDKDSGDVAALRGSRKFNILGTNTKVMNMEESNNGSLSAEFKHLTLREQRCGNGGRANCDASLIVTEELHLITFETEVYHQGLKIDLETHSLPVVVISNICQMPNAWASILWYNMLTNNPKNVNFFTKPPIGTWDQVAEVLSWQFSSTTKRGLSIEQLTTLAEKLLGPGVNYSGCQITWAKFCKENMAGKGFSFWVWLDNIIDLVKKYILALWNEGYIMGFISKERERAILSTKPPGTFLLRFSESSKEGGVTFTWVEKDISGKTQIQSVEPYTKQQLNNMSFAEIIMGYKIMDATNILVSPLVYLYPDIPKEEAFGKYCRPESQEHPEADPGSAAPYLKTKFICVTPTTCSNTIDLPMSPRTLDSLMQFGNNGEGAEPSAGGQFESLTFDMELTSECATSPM
Test [2] relates to HCT-116. Briefly: Induction of apoptosis in human HCT116 cells assessed as increase in cleaved caspase-3 level at 10 uM by western blot analysis. Type of test: functional, cell-based. In general terms: A western blot detects proteins with antibodies after separation by electrophoresis.
Test [3] concerns MDA-MB-231. Kind of test: Growth inhibition of human MDA-MB-231 cells assessed as cell proliferation at highest concentration after 24 hrs by WST-1 assay. Type of test: functional. On the technique in general: Formazan colour is commonly taken as a measure of viable cells.
Test [4] relates to SW-620. Kind of test: Growth inhibition of human SW620 cells assessed as cell proliferation at highest concentration after 24 hrs by WST-1 assay. The test is classed as functional.
The target of test [5] is Signal transducer and activator of transcription 3 (Homo sapiens) (UniProt P40763). Briefly: Inhibition of STAT3 in human HCT 116 cells co-transfected with pSTAT3-TA-Luc after 24 hrs by dual luciferase assay. The test is classed as cell-based.
The subject of test [6] is MDA-MB-468. Kind of test: Growth inhibition of human MDA-MB-468 cells assessed as cell proliferation at highest concentration after 24 hrs by WST-1 assay. Type of test: functional.
The subject of test [7] is MDA-MB-468. Briefly: Inhibition of human MDA-MB-468 cell proliferation at highest concentration after 48 hrs by WST-1 assay. Type of test: functional, cell-based.
Test [8] deals with HCT-116. Briefly: Induction of apoptosis in human HCT116 cells assessed as rounded and floated morphology at 2.5 to 50 uM. Type of test: functional, cell-based.
In test [9] the test system is MDA-MB-231. Briefly: Inhibition of human MDA-MB-231 cell proliferation at highest concentration after 48 hrs by WST-1 assay. Type of test: functional, cell-based.
Test [10] deals with HCT-116. Briefly: Induction of apoptosis in human HCT116 cells assessed as increase in cleaved PARP level at 10 uM by western blot analysis. Type of test: functional, cell-based.
The subject of test [11] is SW-620. Kind of test: Inhibition of human SW620 cell proliferation at highest concentration after 48 hrs by WST-1 assay. The test is classed as functional, cell-based.
Test [12] has as its system HCT-116. Kind of test: Inhibition of human HCT116 cell proliferation at highest concentration after 48 hrs by WST-1 assay. The test is classed as functional, cell-based.
Test [13] relates to HCT-116. Briefly: Growth inhibition of human HCT116 cells assessed as cell proliferation at highest concentration after 24 hrs by WST-1 assay. The test is classed as functional.

Active and inactive are the calls of the source. The calls are words filed in the database; no cut-off is given here.

By inhibition is commonly meant the drop in the measured response relative to a control, in per cent. Consider `COC(=O)c1nonc1NS(=O)(=O)Cc1ccccc1`, for which, in test [1], the inhibition was 7%.
With `O=S(=O)(Nc1nonc1-c1ccc(Cl)cc1)c1ccc(C(F)(F)F)cc1`, the inhibition in [1] was -3%.
Consider `COC(=O)c1nonc1NC(=O)Cc1ccccc1`, for which, in test [1], the inhibition was 9%.
On the same count and under the same terms, with `Cc1nonc1NC(=O)Nc1ccccc1` the figure was 2%; with `O=C(NCc1ccccc1)Nc1nonc1-c1ccccc1`, 11%; with `CC(=O)Oc1ccc(-c2nonc2N(C)C(=O)N(C)c2ccc(C(F)(F)F)cc2)cc1`, 26%.
Still for that read-out and setting: with `CN(C(=O)Nc1nonc1-c1ccc(O)cc1)c1ccc(C(F)(F)F)cc1` the figure was 51%.
Still for that read-out and setting: with `Cc1nonc1NS(=O)(=O)Cc1ccccc1` the figure was 6%.
In the case of `O=C(Nc1ccccc1)Nc1nonc1-c1ccccc1`, the inhibition in test [1] stood at 36%.
Still for that read-out and setting: for `CC(=O)Oc1ccc(-c2nonc2NC(=O)N(C)c2ccc(C(F)(F)F)cc2)cc1` the value was 32%; for `O=C(Cc1ccccc1)Nc1nonc1-c1ccccc1`, 11%.
Consider `O=C(Nc1ccc(C(F)(F)F)cc1)Nc1nonc1-c1ccc(Cl)cc1`, for which the outcome with HCT-116 [2], in the test with HCT-116 [8] and with HCT-116 [10] was Active. Besides, the “growth inhibition (GI)” value with MDA-MB-231 [3], in the test with SW-620 [4], in the test with MDA-MB-468 [6] and in the test with HCT-116 [13] was 50% throughout. In addition, the inhibition entry in test [5] was “Dose-dependent effect”; in [1], 45%. For the same molecule, the inhibition entry in the test on MDA-MB-468 [7], with MDA-MB-231 [9], in the test with SW-620 [11] and in the test with HCT-116 [12] was “Active” each time.
With `O=C(Nc1ccc(C(F)(F)F)cc1)Nc1nonc1-c1ccc(O)cc1`, in [1], the inhibition came out at 24%.
Same read-out and setting: for `O=S(=O)(Cc1ccccc1)Nc1nonc1CO` the value was -2%; for `O=C(Nc1nonc1-c1ccc(Cl)cc1)c1ccc(C(F)(F)F)cc1`, -7%.
As for `CN(C(=O)N(C)c1nonc1-c1ccc(Cl)cc1)c1ccc(C(F)(F)F)cc1`, the inhibition in [1] was 8%.
For `CN(C(=O)Nc1nonc1-c1ccc(OCc2ccccc2)cc1)c1ccc(C(F)(F)F)cc1`, the inhibition in [1] worked out at 21%.
Consider `CN(C(=O)Nc1nonc1-c1ccc(Cl)cc1)c1ccccc1`, for which the inhibition in test [1] was determined as 25%.
Turning to `Cc1nonc1NC(=O)Cc1ccccc1`, in test [1], the inhibition stood at 6%.
As to `O=C(Cc1ccccc1)Nc1nonc1CO`, the inhibition in [1] was 14%.
